One molecule from patent publication US20230042198A1, “Methods and Compositions for Modulationg Heterochromatin Dysfunction, Genomic Instability, and Associate Conditions” (La Jolla Institute for Immunology, priority 2019, published 2023) can be followed below.

This test relates to IMR90 fibroblasts, CD4+ and CD8+ T cells, CD34+ cells. The experiment in a line: Senescence and heterochromatic hypomethylation with cell division/aging, rescue with Vitamin C. Type of test: cell-based, human. As to conditions: activator of TET proteins. From the text: Example 9: The inventors investigated heterochromatin dysfunction as a function of both cellular age and number of cell divisions, using multiple cellular systems: IMR90 fibroblasts, freshly isolated CD4+ and CD8+ T cells from young and old human donors, and commercially available CD34^+ cells (enriched for hematopoietic precursor cells) from human newborns (cord blood) and older adults.
Tet1/2/3 triple-foxed (Tet1/2/3 Tfl) RosaYFP^LSL or RosaYFP^LSL mice were used, left […] with tamoxifen; (ii) DNMT3a (or multiple Dnmt) foxed mice, also bearing the RosaYFP^LSL reporter and left […] with tamoxifen. Mouse fibroblasts have a longer passage time to senescence, so IMR90 human fibroblasts in which partial TET or DNMT loss-of-function was induced by genome editing were also used.

With `O=C1O[C@H]([C@@H](O)CO)C(O)=C1O` [Vitamin C], the “hypomethylation observed with cell division and/or aging” value was “can be rescued” and the time to senescence result is “can be delayed”.
